Source: patent publication US9072730B2, “Method of improving cognitive functions in individuals with down syndrome and/or alzheimer's disease” (The Board of Trustees of the Leland Stanford Junior …, priority 2009, dated 2015)
Entries after “also recorded” stand apart in the source; their conditions may differ. Blank lines part the entries; values can stand above or below the compound they belong to.

Key:
Ts65Dn mice [1] = experiment: Contextual and tone-cued fear conditioning test; format: in vivo, mouse
Experimental: Contextual and tone-cued fear conditioning tests were performed using the Fear Conditioning Video Tracking System (Med-Associates Inc., St. Albans, Vt.). To reduce the stress, each mouse was handled for 5 days. After that, the mice underwent three days of Training day, Tone-Cued in novel context testing day, and Contextual testing day. In the first day, mice went through the Training session. Prior to conditioning, each mice had 3 min to explore the Test Chamber (baseline activity and then they received five tone-shock pairings). The shock (0.5 mA, 50 Hz, 2 sec) delivered after 18 sec from the end of the tone (70 dB, 2 kHz, 20 sec). Therefore, an empty trace interval interposed between the tone and the shock in each conditional stimulus-unconditional stimulus pairing. On the second day (Tone-cued testing day), mice were placed in the novel context (new olfactory and visual cues) for 3 min and subsequently were presented three tone presentations (same as the Training Day) without any shocks. On the last day of the experiment, mice were placed in the context similar to the Training Day for 5 min without any tones or shocks. The effect of L-DOPS on fear conditioning was investigated by treating Ts65Dn mice and their controls 5 hours before the start of each test. The treated mice underwent three days of Training day, Cued testing day and Contextual testing day. L-DOPS was diluted (20 mg/ml) in 0.2M HCL containing 2 mg/ml ascorbic acid. The pH was neutralized with 10M NAOH just before the injection. To counter the peripheral effects of L-DOPS, S-(−) carbidopa was used. Carbidopa was diluted in the same solution (2.5 mg/ml) as L-DOPS. Two groups (10 pairs each) of 5-6-month-old male Ts65Dn and 2N mice were either injected with carbidopa (2.5 mg/ml) or a combination of 20 mg/ml L-DOPS and 2.5 mg/ml carbidopa (50 μl/g subcutaneously) five hours before the start in all 3 days of the experiment. Six-months-old 2N (CD=13, CD+L-DOpS=11) and Ts65Dn (CD=10, CD+L-DOPS=9) mice were used for this study. The effect of β1-partial agonist (xamoterol) on Ts65Dn mice and their controls […]. Xamoterol hemifumarate (Tocris Bioscience, Ellisville, Mich.) was freshly diluted in saline. Two groups of 9-month-old (19 2N and 15 Ts65Dn) mice were subcutaneously injected either with xamoterol (3 mg/kg) or saline (10 ml/kg) exactly […] before all 3 days of fear conditioning test. Nine-months-old 2N (saline=4, xamoterol=8), and Ts65Dn (saline=4, xamoterol=6) mice were used for this study. The data tested using one-way analysis of variance (ANOVA) between the genotypes. The significance of genotype and treatment effects was confirmed by a non-parametric Mann-Whitney U-tests.

[2] = Norepinephrine and L-DOPS determination in tissue by UV-HPLC; format: in vivo, mouse
Experimental: Mice were deeply anesthetized using sodium pentobarbital (200 mg/kg i.p.) and brains were extracted immediately. The right hippocampal region dissected out on ice, weighed, and frozen shortly after. The rest of the right hemisphere was also weighed and collected. For homogenization, 1 ml of ice-cold 0.05 M phosphoric acid (Sigma) with 10 μl of […] of 3,4-Dihydrxybenzylamine hydrobromide (DHBA; Sigma) used as an internal standard. The tissue samples were sonicated for 3 seconds on ice. The resulting homogenates were centrifuged at 15,000 g for 15 minutes at 4° C. The resulting supernatant was transferred to a conical tube containing 1 ml of 3M tris (pH: 8.6) with 90 mg acid-washed aluminum oxide (Sigma). The mixture was rotated at 4° C. overnight. The alumina was centrifuged for 10 seconds, and washed briefly with 6 mM tris (pH: 8.6) and 3 changes of water (HPLC grade). After final centrifugation, the resulting precipitate was mixed with 1.8 ml of 0.05M H3PO4 (Sigma, puriss>99%) for 30 minutes at 4° C. The solution was filtered with a 0.2 μm filter and used for UV-based HPLC. 4.5 months-old (N=4 pairs of 2N and Ts65Dn) and 18 months (2N; N=8 and Ts65Dn; N=6) were used for this study.
A UV-HPLC machine (Varian, Chicago) equipped with an auto sampler and 2 pumps was used for this study. The machine was connected to a Varian column (Pursuit PFP, 150 mm×4.6 mm, 5 μm, A3050150×046) optimized for catecholamine measurements in aqueous conditions. The mobile phase was consisted of 60% 0.1M citric acid (Sigma) and 40% 0.1M Na2HPO4 both in 0.3 mM HPLC-grade sodium octyl sulfate salt (Sigma) (7). The mobile phase was degassed using 0.2 μm filter and refreshed every week. The flow rate was set at 1.0 ml/min at room temperature and the detection was performed at 270 nm. To achieve maximum performance, the mobile phase was pumped at 0.1 ml/min flow the night before the experiment. The column was washed thoroughly with 50% methanol after each experiment. To calculate the amounts of catecholamines, the height of the peak generated by DHBA, NE, and L-DOPS were measured using Variant software. […]

[3] = based on the literature; cited from earlier work
[4] = subcutaneous administration; cited from earlier work
Ts65Dn mice [5] = experiment: Nesting behavior analysis; format: in vivo, mouse
Experimental: The nesting experiment was performed using 10 pairs of 6-month-old male Ts65Dn (CD=10, CD+L-DOPS=10) and 2N (CD=10, CD+L-DOPS=10) mice. The nesting behavior was analyzed in three different periods (sham, drug and no treatment): Each mouse was placed in individual mouse cages for 4 days. On day 5, each mouse was injected subcutaneously at 1 PM with 50 μl/g of (2.5 mg/ml) carbidopa (Sigma) and returned to their individual cages. The next day, mice were injected the same amount of carbidopa as the day before at 1 PM. At 6 PM, the mice were transferred to a rat cage and one nestlet was placed in each cage. Next morning, the nesting was scored by three investigators blind to the genotype. This was followed by weighing the remaining nestlets. Following the sham experiment, mice were returned to their individual mouse cages without any nestlets for 6 days. On day 7, the mice were injected subcutaneously (50 μl/g) of a combination of (20 mg/ml) L-DOPS and carbidopa (2.5 mg/ml) at 1 PM and were returned to their individual mouse cages. Next day the injection was repeated at 1 PM and at 6 PM the mice were transferred to clean rat cage with one nestlet. The quality and quantity of nesting was scored the morning after. The mice were kept in individual cages for two weeks to minimize the effects of L-DOPS treatment on nesting. […] The quality and quantity of nesting was scored the morning after.

acute hippocampal slices = experiment: Evoked field potentials in acute hippocampal slices (dentate gyrus); design: species or system mouse
Experimental: Three and 6-month-old 2N and Ts65Dn mice were anesthetized with isoflurane before decapitation. The brain was quickly removed and immersed for 2-3 min in ice-cold artificial CSF (ACSF) [containing (in mM): 119 NaCl, 2.5 Kcl, 2.5 CaCl2, 1.3 MgSO4, 1 NaH2PO4, 26 NaHCO3, and 10 glucose], osmolarity 310, continuously bubbled with 95% 02 and 5% CO2, pH 7.4. The HC was extracted and cut in ice-cold ACSF with a vibratome (Leica 1000; Leica, Nussloch, Germany) into 350-μm-thick transverse slices, which were allowed to recover in oxygenated ACSF at 32° C. for 30 min, and then at room temperature for an additional 1-10 hr before experimental recordings. Slices were transferred into the recording chamber and superfused with ACSF at a constant rate of 2.5 ml/min at a temperature of 32° C. Recording electrodes were made of borosilicate glass capillaries (1B150F, World Precision Instruments, Sarasota, Fla.) and were filled with 2M NaCl (resistance […]). Mono polar stimulating electrode was maid of Pt/Ir wires with diameter 25.4 μm (PTT0110, World Precision Instruments, Sarasota, Fla.) and had 100-μm-long exposed tip. The stimulating electrode was inserted under visual control perpendicular to the slice surface into the middle molecular layer (MML), and the recording electrode into the granule cell layer of the DG upper blade. The distance between the electrodes was 250-300 μm. Testing stimuli evoked field responses with population spike amplitudes 65-75% of maximum. The amplitude of the population spike was measured as follows: a line was drawn at the base of the population spike connecting the first and second peaks of the field response, a second line was drawn at the peak of the population spike (i.e., at the peak of the downward deflection), and at the peak of the spike, a line was drawn vertically between these two lines, thus giving the amplitude of the population spike. The magnitude of the fEPSP was measured as the initial slope of the linear part of the fEPSP, which occurred 0.1-1 ms after the presynaptic volley. […]

Structure (SMILES): O=C(NCCNCC(O)COc1ccc(O)cc1)N1CCOCC1 (stereo not drawn) [xamoterol]
contextual learning / contextual discrimination (freezing on contextual day) (Ts65Dn mice [1]; 9-month-old Ts65Dn mice, xamoterol 3 mg/kg s.c. 1 hour before each test, control saline): restored failed contextual learning; also recorded: found to restore contextual learning; also recorded: contextual learning failure was reversed; also recorded: acted to restore contextual learning; also recorded: significant improvement; also recorded: significant restoration of contextual discrimination
difference between 2N and Ts65Dn mice in percent of freezing on contextual day (Ts65Dn mice [1]; xamoterol treated 2N vs Ts65Dn, ANOVA F=0.392, p=0.844): no longer any differences were found

L-DOPS levels in tissues ([2]; six hours after administration, 2N and Ts65Dn mice, L-DOPS 1 mg/g with carbidopa 0.125 mg/g): present in all tissues, including brain
L-DOPS tissue levels, difference between genotypes ([2]; six hours after administration, 2N vs Ts65Dn, p=0.4894): no difference between genotypes
Structure (SMILES): N[C@H](C(=O)O)[C@H](O)c1ccc(O)c(O)c1 [L-DOPS, L-threo-3,4-dihydroxyphenylserine]
NE levels in the HC of Ts65Dn mice relative to 2N mice ([2]; after L-DOPS 1 mg/g with carbidopa 0.125 mg/g): 96%
dose used safely in humans [3]: up to 1 gram per day
contextual memory / contextual learning (freezing on contextual day) (Ts65Dn mice [1]; 6-month-old Ts65Dn mice, 20 mg/ml L-DOPS + 2.5 mg/ml carbidopa, 50 μl/g s.c., 5 hours before each test, control carbidopa alone): significant improvement in contextual memory; also recorded: found to restore contextual learning; also recorded: able to alleviate cognitive failure; also recorded: contextual learning failure was reversed; also recorded: acted to restore contextual learning
difference in freezing between 2N and Ts65Dn mice in contextual test (Ts65Dn mice [1]; L-DOPS + carbidopa treated 2N vs Ts65Dn, One-way ANOVA p=0.5247): restored fully the difference in freezing; also recorded: no significant difference between the two groups
freezing measured on a minute-by-minute basis in contextual test (Ts65Dn mice [1]; L-DOPS + carbidopa treated Ts65Dn mice): increased freezing following the first minute
reduction of the deficiency in Ts65Dn mice (Ts65Dn mice [1]; L-DOPS treatment versus no treatment): 80%
how much less Ts65Dn mice remembered than their controls after treatment (Ts65Dn mice [1]; after treatment with L-DOPS, without treatment 44% less): 8%
time to maximum brain NE levels [4]: ≤ 5 h
nesting behavior (Ts65Dn mice [5]; drug period: L-DOPS 20 mg/ml + carbidopa 2.5 mg/ml, 50 μl/g s.c., p=0.0245): improved nesting; also recorded: significant improvement in the nesting behavior
nesting behavior after cessation of treatment (Ts65Dn mice [5]; no treatment (washout) period of two weeks, p=0.0121): again showed poor nesting behavior; also recorded: vanished 2 weeks later

Structure (SMILES): CC(C)NCC(O)c1ccc(O)c(O)c1 (stereo not drawn) [ISO]
effect on slope of fEPSPs, Ts65Dn versus 2N (acute hippocampal slices; 6-month-old mice, stimulation of middle molecular layer, recording in granule cell layer): stronger effects on slope of fEPSPs in Ts65Dn than 2N mice
recorded response 30 min after application, Ts65Dn versus 2N (acute hippocampal slices; ISO 10 μM, 10 min, slices of 6-month old Ts65Dn and age-matched 2N): much stronger response in Ts65Dn than 2N mouse
change in population spike amplitude of fEPSPs (acute hippocampal slices; ISO 10 μM, 3- and 6-months-old 2N and Ts65Dn mice): significant increase in population spike amplitude
duration of enhancement of population spike amplitude (acute hippocampal slices; ISO 10 μM, 3-month-old 2N mice): at least 30 min
duration of increase of population spike amplitude (acute hippocampal slices; ISO 10 μM, 6 months old mice): > 1 h
slope and amplitude of excitatory postsynaptic potentials (EPSPs) (acute hippocampal slices; slices at age 3 months and 6 months, 2N and Ts65Dn mice): increase in both the slope and amplitude
EPSP responses in Ts65Dn slices compared with 2N (acute hippocampal slices; slices at age 6 months): consistently more robust
